Measurements taken from patent publication US9499529B2 (California State University Fresno, priority 2013, dated 2016).

Legend:
[1] = system: PC-3 prostate cancer cell line; conditions: cited from earlier work
[2] = system: MDA-MB-231 breast cancer cells; assay: In vitro cytotoxicity toward MDA-MB-231 cells; assay type: cell-based; conditions: Homo sapiens, 120 h, five days, read-out: IC50 (analog)
Text: (§1) Cell numbers were counted with a cell viability analyzer (Beckman-Coulter). The ratio of drug treated viable cell numbers to vehicle treated viable cell numbers was defined as percentage viability.

[3] = system: HeLa cervical cancer cells; assay: In vitro cytotoxicity against HeLa cervical cancer cells; assay type: cell-based, human; conditions: for IC50: three days
Protocol: (§2) The half maximal inhibitory concentration (IC50) is a measure of the effectiveness of a substance in inhibiting a specific biological or biochemical function. It is commonly used as a measure of antagonist drug potency.
as §1
(§3) A preliminary dose response curve was prepared from the collected data by means well known to those of ordinary skill in the art.
(§4) The six different concentrations fell within a selected linear concentration range determined by reference to the preliminary dose response curve and efforts to estimate the concentration at which 50% of the cell growth would be inhibited. The selected six different concentrations were used to further fill out the dose response curve to pinpoint a more exact IC50 value.

[4] = system: MCF-10A normal mammary epithelial cells; assay: Cytotoxicity towards non-cancerous MCF-10A cells (FIG. 9); assay type: cell-based; conditions: for cytotoxicity towards MCF-10A normal mammary epithelial cells (in words): 0.1 μM, and 0.01 μM
Protocol: The MCF-10A normal mammary epithelial cells were cultured in RPMI-1640 medium supplemented with 10% FBS, 4 mM glutamine, 1 mM sodium pyruvate, 100 IU/mL penicillin, 100 ug/mL streptomycin and 0.25 ug/mL amphotericin. The MCF-10A cells were plated in 24-well plates at a density of 20,000 each well in 10% FBS RPMI-1640 or DMED medium. […] Cell numbers were counted with a cell viability analyzer (Beckman-Coulter).

[5] = system: HeLa cervical cancer cells; assay: HeLa cell viability after treatment with analog (cell count, cell viability analyzer); assay type: cell-based, human; conditions: for viability at 1 µM / viability at 10 µM: Homo sapiens, HeLa, 72 h, read-out: HeLa Cell viability after treatment with analog (% viability)
Protocol: Cell numbers were counted with a cell viability analyzer (Beckman-Coulter). The ratio of drug treated viable cell numbers to control vehicle (DMSO) treated viable cell numbers was defined as percentage viability. […] Compound nos.
The HeLa cells used in the experiments summarized by Table 5 were cultured in RPMI-1640 medium supplemented with 10% FBS, 4 mM glutamine, 1 mM sodium pyruvate, 100 IU/mL penicillin, 100 ug/mL streptomycin and 0.25 ug/mL amphotericin. The HeLa cells were plated in 24-well plates at a density of 20,000 cells in each well in 10% FBS RPMI-1640. […] Cell numbers were counted with a cell viability analyzer (Beckman-Coulter). […]

[6] = system: A549 non-small cell lung cancer cells; assay: In vitro cytotoxicity toward A549 cells; assay type: cell-based; conditions: Homo sapiens, 120 h, between three and five days, read-out: IC50 (analog)
Text: as §1

[7] = system: DU-145 prostate cancer cells; assay: In vitro cytotoxicity against DU-145 prostate cancer cells; assay type: cell-based, human; conditions: DU-145 cells; for IC50: five days
Protocol: as §2
Cell numbers were counted with a cell viability analyzer (Beckman-Coulter).
as §3, §4

[8] = system: PC-3 prostate cancer cells; assay: In vitro cytotoxicity against PC-3 prostate cancer cells; assay type: cell-based, human; conditions: PC-3 cells; for IC50: five days
Protocol: as §2
Cell cultures were maintained in 5% carbon dioxide at a temperature of 37° C. […] Cell numbers were counted with a cell viability analyzer (Beckman-Coulter). […] A preliminary dose response curve was prepared from the collected data by means well known to those of ordinary skill in the art.
as §4

[9] = 1 μM, three days, relative to DMSO vehicle
[10] = 10 μM, three days, relative to DMSO vehicle

Row | SMILES | IC50 [3] [µM] | IC50 [7] [µM] | IC50 [8] [µM] | IC50 (curcumin)/IC50 (analog) [3] | HeLa Cell viability after treatment with analog (% viability) [5, 9] [%] | HeLa Cell viability after treatment with analog (% viability) [5, 10] [%] | other results
1 | COc1cc(/C=C/C(=O)/C=C/c2cc(OC)c(O)c(OC)c2)cc(OC)c1O [FLLL12] | – | – | – | – | – | – | potency towards PC-3 prostate cancer cell line relative to curcumin [1]: more potent than curcumin
2 | COc1cc(/C=C/C(=O)CC(=O)/C=C/c2ccc(O)c(OC)c2)ccc1O [curcumin, reference compound] | – | – | – | – | – | – | IC50 [2]: 0.88 µM; IC50 ([3]; Homo sapiens, HeLa, 72 h): 10.5 µM; survival of MCF-10A cells ([4]; human, 5 days, 0.01 µM): 100%; survival of MCF-10A cells ([4]; human, 5 days, 0.1 µM): about 95%; survival of MCF-10A cells ([4]; human, 5 days, 1 µM): about 95%; viability at 1 µM [5]: 100%; viability at 10 µM [5]: 42.5%; IC50 [6]: 15 µM; IC50 ([7]; Homo sapiens, DU-145, 120 h): 0.3 µM; IC50 ([8]; Homo sapiens, PC-3, 120 h): 1.98 µM
3 | Cc1cc(/C=C/C(=O)/C=C/c2cc(C)no2)on1 [Compound 28, (1E,4E)-1,5-Bis(3-methylisoxazol-5-yl)penta-1,4-dien-3-one] | 0.226 | 0.016 | 0.041 | – | – | – | IC50 [2]: 0.156 µM; survival of MCF-10A cells ([4]; 0.01 μM, five days, FIG. 9): about 90%; survival of MCF-10A cells ([4]; 0.1 μM, five days, FIG. 9): about 90%; survival of MCF-10A cells ([4]; 1 μM, five days, FIG. 9): about 85%; viability at 1 µM [5]: 28%; IC50 [6]: 0.16 µM; melting point: 167 to 169 °C
4 | CC(C)Cn1ccnc1/C=C/C(=O)/C=C/c1nccn1CC(C)C [Compound 22] | 0.43 | 0.057 | 0.046 | 24 | 34.1 | 23.1 | survival of MCF-10A cells ([4]; 0.01 μM, five days, FIG. 9): 100%; survival of MCF-10A cells ([4]; 0.1 μM, five days, FIG. 9): about 85%; cytotoxicity towards MCF-10A normal mammary epithelial cells (in words) ([4]; 1 μM, FIG. 9): no apparent cytotoxicity; survival of MCF-10A cells ([4]; 1 μM, five days, FIG. 9): about 85%
5 | Cc1cc(/C=C2\CCC/C(=C\c3cc(C)on3)C2=O)no1 [Compound 8, (2E,6E)-2,6-Bis((5-methylisoxazol-3-yl)methylene)cyclohexanone] | 0.205 | 0.034 | 0.14 | – | – | – | HeLa Cell viability after treatment with analog (% viability) ([5]; 10 µM): 12.8%
6 | CC(C)CCn1ccnc1/C=C/C(=O)/C=C/c1nccn1CCC(C)C [Compound 33] | 0.23 | – | – | – | 3.0 | – | –
7 | CN1CC(=Cc2cscn2)C(=O)C(=Cc2cscn2)C1 [Compound 6] | 0.817 | 0.43 | 0.8 | 13 | 72.0 | 12.0 | IC50 (curcumin)/IC50 (analog) [7]: 0.7; IC50 (curcumin)/IC50 (analog) [8]: 2.5
8 | CCC(CC)n1c(/C=C/C(=O)/C=C/c2nc3ccccc3n2C(CC)CC)nc2ccccc21 [Compound 45] | 0.696 | – | – | 15 | – | – | –
9 | CCC(CC)n1ccnc1/C=C/C(=O)/C=C/c1nccn1C(CC)CC [Compound 32] | 0.25 | – | – | – | 3.4 | – | –
10 | CCC(C)n1ccnc1/C=C/C(=O)/C=C/c1nccn1C(C)CC (stereo not shown) [Compound 21] | 0.654 | 0.035 | 0.063 | 16 | 81.8 | 17.7 | survival of MCF-10A cells ([4]; 0.01 μM, five days, FIG. 9): 100%; survival of MCF-10A cells ([4]; 0.1 μM, five days, FIG. 9): about 90%; cytotoxicity towards MCF-10A normal mammary epithelial cells (in words) ([4]; 1 μM, FIG. 9): no apparent cytotoxicity; survival of MCF-10A cells ([4]; 1 μM, five days, FIG. 9): about 80%
11 | CC(C)Cn1c(/C=C/C(=O)/C=C/c2nc3ccccc3n2CC(C)C)nc2ccccc21 [Compound 41] | 0.321 | – | – | – | 5.72 | – | –
12 | Cc1cc(/C=C/C(=O)/C=C/c2cc(C)on2)no1 [Compound 27] | 0.296 | 0.042 | 0.25 | – | 48 | 15.9 | IC50 (curcumin)/IC50 (analog) [8]: 7.9
13 | Cc1cc(/C=C2\CCC/C(=C\c3cc(C)on3)C2=O)no1 [Compound 18, (2E,6E)-2,6-Bis((5-methylisoxazol-3-yl)methylene)cyclohexanone] | 0.552 | 0.07 | 0.071 | 19 | – | – | viability at 1 µM [5]: 32%; viability at 10 µM [5]: 15.9%
14 | CCCC(C)n1ccnc1/C=C/C(=O)/C=C/c1nccn1C(C)CCC (stereo not shown) [Compound 34] | 0.15 | – | – | – | 7.7 | – | –
15 | COc1cc(/C=C/C(=O)/C=C/c2ccc(O)c(OC)c2)ccc1O [FLLL11] | – | – | – | – | – | – | potency towards PC-3 prostate cancer cell line relative to curcumin [1]: more potent than curcumin
16 | CC(C)n1ccnc1/C=C/C(=O)/C=C/c1nccn1C(C)C [Compound 20] | 0.418 | 0.054 | 0.089 | 25 | 35 | 11.4 | –
17 | CCCCCCn1ccnc1/C=C/C(=O)/C=C/c1nccn1CCCCCC [Compound 35] | 0.59 | – | – | 18 | 6.1 | – | –
18 | CN1CC(=Cc2cnn(C)c2)C(=O)C(=Cc2cnn(C)c2)C1 [Compound 3] | – | 1870 | 76 | – | 100.9 | 97.8 | IC50 (curcumin)/IC50 (analog) [7]: 0.0002; IC50 (curcumin)/IC50 (analog) [8]: 0.03
